Laboratory results reported in US20120029187A1, “HALOALKYLSULFONANILIDE DERIVATIVE” (Nissan Chemical Industries, Ltd., priority 2009, published 2012).

How the values were obtained:
Format in all cases: in vivo
ducksalad [1] = assay: Test Example 2: herbicidal effects during the vegetation period under submerged conditions; conditions: treatment during the vegetation period under submerged conditions; dose 2.52 g/a
Method in brief: (§1)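 Barnyardgrass, bulrush and ducksalad were co-sown in alluvial soil flooded to 4 cm and grown in a greenhouse at 25 to 30° C. At the 1- or 2-leaf stage, water-diluted emulsifiable concentrates went onto the water surface at set doses (g/a). Herbicidal effect was scored three weeks later on a graded scale.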

barnyardgrass [2] = assay: as above; conditions: treatment during the vegetation period under submerged conditions; dose 2.52 g/a
Method in brief: as §1

bulrush [3] = assay: as above; conditions: treatment during the vegetation period under submerged conditions; dose 2.52 g/a
Method in brief: as §1

transplanted rice = assay: Test Example 1: preemergence treatment under submerged conditions, effect on crop; conditions: dose 2.52 g/a
Method in brief: (§2)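 Scoring 0 (<5% mortality) to 5 (≥90%) was done three weeks after preemergence application to the water surface of submerged (4 cm) alluvial soil, doses given as g per are. Weeds were seeded and 2.5-leaf rice transplanted on the treatment day; greenhouse at 25–30 °C.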

ducksalad [4] = assay: Test Example 1: herbicidal effects in preemergence treatment under submerged conditions; conditions: dose 2.52 g/a
Method in brief: as §2

barnyardgrass [5] = assay: as above; conditions: dose 2.52 g/a
Method in brief: as §2

bulrush [6] = assay: as above; conditions: dose 2.52 g/a
Method in brief: as §2

common lambsquater [7] = assay: Test Example 4: herbicidal effect in foliage treatment; conditions: dose 3.2 g/a, three weeks after application
Method in brief: (§3)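 Visual herbicidal scores on a graded scale were recorded three weeks after foliar application. Compounds went on as diluted emulsifiable concentrates at predetermined g/a to plants grown 14 days in a 25 to 30° C greenhouse.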

wild oat [8] = assay: as above; conditions: dose 3.2 g/a, three weeks after application
Method in brief: as §3

velvetleaf [9] = assay: as above; conditions: dose 3.2 g/a, three weeks after application
Method in brief: as §3

common chickweed [10] = assay: as above; conditions: dose 3.2 g/a, three weeks after application
Method in brief: as §3

redroot pigweed [11] = assay: as above; conditions: dose 3.2 g/a, three weeks after application
Method in brief: as §3

giant foxtail [12] = assay: as above; conditions: dose 3.2 g/a, three weeks after application
Method in brief: as §3

water foxtail [13] = assay: as above; conditions: dose 3.2 g/a, three weeks after application
Method in brief: as §3

barnyardgrass [14] = assay: as above; conditions: dose 3.2 g/a, three weeks after application
Method in brief: as §3

Italian ryegrass [15] = assay: as above; conditions: dose 3.2 g/a, three weeks after application
Method in brief: as §3

posumbu knotweed = assay: as above; conditions: dose 3.2 g/a, three weeks after application
Method in brief: as §3

common ragweed [16] = assay: as above; conditions: dose 3.2 g/a, three weeks after application
Method in brief: as §3

large crabgrass [17] = assay: as above; conditions: dose 3.2 g/a, three weeks after application
Method in brief: as §3

beadstraw = assay: as above; conditions: dose 3.2 g/a, three weeks after application
Method in brief: as §3

common lambsquater [18] = assay: Test Example 3: herbicidal effects in soil treatment; conditions: dose 3.2 g/a
Method in brief: (§4)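 Seeds were sown in sterilized diluvial soil and covered with about 1.5 cm of soil. Compounds, formulated as emulsifiable concentrates and diluted with water, were sprayed evenly over the soil surface at set doses in g/a. Herbicidal effect was scored on a rating scale three weeks later.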

wild oat [19] = assay: as above; conditions: dose 3.2 g/a
Method in brief: as §4

velvetleaf [20] = assay: as above; conditions: dose 3.2 g/a
Method in brief: as §4

common chickweed [21] = assay: as above; conditions: dose 3.2 g/a
Method in brief: as §4

redroot pigweed [22] = assay: as above; conditions: dose 3.2 g/a
Method in brief: as §4

giant foxtail [23] = assay: as above; conditions: dose 3.2 g/a
Method in brief: as §4

water foxtail [24] = assay: as above; conditions: dose 3.2 g/a
Method in brief: as §4

barnyardgrass [25] = assay: as above; conditions: dose 3.2 g/a
Method in brief: as §4

Italian ryegrass [26] = assay: as above; conditions: dose 3.2 g/a
Method in brief: as §4

common ragweed [27] = assay: as above; conditions: dose 3.2 g/a
Method in brief: as §4

large crabgrass [28] = assay: as above; conditions: dose 3.2 g/a
Method in brief: as §4

SMILES	C: ducksalad, herbicidal effect (evaluation scale 0-5) (ducksalad [1])	A: barnyardgrass, herbicidal effect (evaluation scale 0-5) (barnyardgrass [2])	B: bulrush, herbicidal effect (evaluation scale 0-5) (bulrush [3])	a: transplanted rice, effect on crop (evaluation scale 0-5) (transplanted rice)	C: ducksalad, herbicidal effect (evaluation scale 0-5) (ducksalad [4])	A: barnyardgrass, herbicidal effect (evaluation scale 0-5) (barnyardgrass [5])	B: bulrush, herbicidal effect (evaluation scale 0-5) (bulrush [6])	L: common lambsquater, herbicidal effect (common lambsquater [7])	F: wild oat, herbicidal effect (wild oat [8])	I: velvetleaf, herbicidal effect (velvetleaf [9])	N: common chickweed, herbicidal effect (common chickweed [10])	K: redroot pigweed, herbicidal effect (redroot pigweed [11])	E: giant foxtail, herbicidal effect (giant foxtail [12])	G: water foxtail, herbicidal effect (water foxtail [13])	A: barnyardgrass, herbicidal effect (barnyardgrass [14])	H: Italian ryegrass, herbicidal effect (Italian ryegrass [15])	M: posumbu knotweed, herbicidal effect (posumbu knotweed)	J: common ragweed, herbicidal effect (common ragweed [16])	D: large crabgrass, herbicidal effect (large crabgrass [17])	O: beadstraw, herbicidal effect (beadstraw)	other results
CC1(C)CN(Cc2ccccc2NS(=O)(=O)C(F)(F)F)C(=O)CO1 [Compound I-15]	5 (mortality of 90% or above (nearly complete death))	5 (mortality of 90% or above (nearly complete death))	5 (mortality of 90% or above (nearly complete death))	1 (mortality of at least 5% and less than 20%)	5 (mortality of 90% or above (nearly complete death))	5 (mortality of 90% or above (nearly complete death))	5 (mortality of 90% or above (nearly complete death))	3 (mortality of at least 40% and less than 70%)	1 (mortality of at least 5% and less than 20%)	5 (mortality of 90% or above (nearly complete death))	4 (mortality of at least 70% and less than 90%)	3 (mortality of at least 40% and less than 70%)	4 (mortality of at least 70% and less than 90%)	5 (mortality of 90% or above (nearly complete death))	5 (mortality of 90% or above (nearly complete death))	4 (mortality of at least 70% and less than 90%)	4 (mortality of at least 70% and less than 90%)	4 (mortality of at least 70% and less than 90%)	4 (mortality of at least 70% and less than 90%)	4 (mortality of at least 70% and less than 90%)	L: common lambsquater, herbicidal effect (evaluation scale 0-5) (common lambsquater [18]): 4 (mortality of at least 70% and less than 90%); F: wild oat, herbicidal effect (evaluation scale 0-5) (wild oat [19]): 3 (mortality of at least 40% and less than 70%); I: velvetleaf, herbicidal effect (evaluation scale 0-5) (velvetleaf [20]): 5 (mortality of 90% or above (nearly complete death)); N: common chickweed, herbicidal effect (evaluation scale 0-5) (common chickweed [21]): 4 (mortality of at least 70% and less than 90%); K: redroot pigweed, herbicidal effect (evaluation scale 0-5) (redroot pigweed [22]): 5 (mortality of 90% or above (nearly complete death)); E: giant foxtail, herbicidal effect (evaluation scale 0-5) (giant foxtail [23]): 3 (mortality of at least 40% and less than 70%); G: water foxtail, herbicidal effect (evaluation scale 0-5) (water foxtail [24]): 5 (mortality of 90% or above (nearly complete death)); A: barnyardgrass, herbicidal effect (evaluation scale 0-5) (barnyardgrass [25]): 5 (mortality of 90% or above (nearly complete death)); H: Italian ryegrass, herbicidal effect (evaluation scale 0-5) (Italian ryegrass [26]): 5 (mortality of 90% or above (nearly complete death)); J: common ragweed, herbicidal effect (evaluation scale 0-5) (common ragweed [27]): 5 (mortality of 90% or above (nearly complete death)); D: large crabgrass, herbicidal effect (evaluation scale 0-5) (large crabgrass [28]): 5 (mortality of 90% or above (nearly complete death))
CC(C)COC(=O)N(c1ccccc1CN1COC(c2ccccc2)CC1=O)S(=O)(=O)C(F)(F)F (centres unmarked) [II-13]	5 (mortality of 90% or above (nearly complete death))	5 (mortality of 90% or above (nearly complete death))	5 (mortality of 90% or above (nearly complete death))	0 (mortality of less than 5% (almost ineffective))	5 (mortality of 90% or above (nearly complete death))	5 (mortality of 90% or above (nearly complete death))	5 (mortality of 90% or above (nearly complete death))	0 (mortality of less than 5% (almost ineffective))	0 (mortality of less than 5% (almost ineffective))	0 (mortality of less than 5% (almost ineffective))	3 (mortality of at least 40% and less than 70%)	0 (mortality of less than 5% (almost ineffective))	0 (mortality of less than 5% (almost ineffective))	0 (mortality of less than 5% (almost ineffective))	2 (mortality of at least 20% and less than 40%)	0 (mortality of less than 5% (almost ineffective))	1 (mortality of at least 5% and less than 20%)	4 (mortality of at least 70% and less than 90%)	2 (mortality of at least 20% and less than 40%)	4 (mortality of at least 70% and less than 90%)	L: common lambsquater, herbicidal effect (evaluation scale 0-5) (common lambsquater [18]): 0 (mortality of less than 5% (almost ineffective)); F: wild oat, herbicidal effect (evaluation scale 0-5) (wild oat [19]): 0 (mortality of less than 5% (almost ineffective)); I: velvetleaf, herbicidal effect (evaluation scale 0-5) (velvetleaf [20]): 0 (mortality of less than 5% (almost ineffective)); N: common chickweed, herbicidal effect (evaluation scale 0-5) (common chickweed [21]): 0 (mortality of less than 5% (almost ineffective)); K: redroot pigweed, herbicidal effect (evaluation scale 0-5) (redroot pigweed [22]): 0 (mortality of less than 5% (almost ineffective)); E: giant foxtail, herbicidal effect (evaluation scale 0-5) (giant foxtail [23]): 4 (mortality of at least 70% and less than 90%); G: water foxtail, herbicidal effect (evaluation scale 0-5) (water foxtail [24]): 0 (mortality of less than 5% (almost ineffective)); A: barnyardgrass, herbicidal effect (evaluation scale 0-5) (barnyardgrass [25]): 3 (mortality of at least 40% and less than 70%); H: Italian ryegrass, herbicidal effect (evaluation scale 0-5) (Italian ryegrass [26]): 0 (mortality of less than 5% (almost ineffective)); J: common ragweed, herbicidal effect (evaluation scale 0-5) (common ragweed [27]): 0 (mortality of less than 5% (almost ineffective)); D: large crabgrass, herbicidal effect (evaluation scale 0-5) (large crabgrass [28]): 2 (mortality of at least 20% and less than 40%)
